The target of the test is T1, Tyrosine-protein phosphatase non-receptor type 1 (Homo sapiens, UniProt P18031).
T1 sequence (P18031 whole entry): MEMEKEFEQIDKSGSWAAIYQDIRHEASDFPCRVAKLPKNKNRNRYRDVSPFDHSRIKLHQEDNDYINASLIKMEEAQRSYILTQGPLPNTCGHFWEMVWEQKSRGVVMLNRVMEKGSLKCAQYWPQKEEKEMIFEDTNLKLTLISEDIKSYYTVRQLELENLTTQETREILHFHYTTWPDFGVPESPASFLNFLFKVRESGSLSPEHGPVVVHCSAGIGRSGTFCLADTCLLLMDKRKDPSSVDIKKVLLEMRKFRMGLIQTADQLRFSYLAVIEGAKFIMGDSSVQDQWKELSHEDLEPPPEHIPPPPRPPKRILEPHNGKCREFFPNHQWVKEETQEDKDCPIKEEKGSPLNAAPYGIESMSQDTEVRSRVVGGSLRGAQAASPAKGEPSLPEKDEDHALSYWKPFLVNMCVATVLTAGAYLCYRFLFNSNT
The test can be described thus: In Vitro Assay. The settings on record: pH 7. The procedure: The effect of the test compounds on PTP1B was studied by preincubating the test compound with enzyme in the reaction system for 10 min and determining the residual enzyme activity according to the Goldstein method.
The IC50 is the concentration that gives 50% inhibition. What is called Ki is a dissociation constant, usually derived from enzyme kinetics or from competition with a known ligand. High values mean weaker binding, low ones tighter binding. On to `COc1c(C2=NOC(c3ccccc3)C2)ccc2c1C=CC(C)(C)O2` (stereo not given) [PTP1B Inhibitor, 5], for which inhibition was half-maximal at 70 µM (IC50) and the Ki turned out to be 30 µM.
The matching figures for `COc1ccc(C2CC(c3ccc4c(c3OC)C=CC(C)(C)O4)=NO2)cc1` (stereo not given) [PTP1B Inhibitor, 6]: 91 µM and 56 µM.
In the same order, the values of `COc1c(C2=NOC(c3ccccn3)C2)ccc2c1C=CC(C)(C)O2` (stereo not given) [PTP1B Inhibitor, 7] are 87 µM and 34 µM.
The matching figures for `COc1cc(C=O)ccc1C1=NOC(c2ccccc2)C1` (stereo not given) [PTP1B Inhibitor, 10]: 69 µM and 48 µM.
`COc1ccc(C2CC(c3ccc(C=O)cc3OC)=NO2)cc1` (stereo not given) [PTP1B Inhibitor, 11] yielded an IC50 of 67 µM and a Ki of 48 µM.
The matching figures for `COc1cc(C=O)ccc1C1=NOC(c2ccccn2)C1` (stereo not given) [PTP1B Inhibitor, 12]: 485 µM and 170 µM.
`COc1cc(C=O)ccc1C1=NOC(c2ccncc2)C1` (stereo not given) [PTP1B Inhibitor, 13] gave an IC50 of 275 µM and a Ki of 150 µM.
The matching figures for `COc1cc(C=O)ccc1C1=NOC(n2ccnc2)C1` (stereo not given) [PTP1B Inhibitor, 14]: 88 µM and 63 µM.
The matching figures for `COC(=O)C1C(c2ccc(C=O)cc2OC)=NOC1c1ccccc1` (stereo not given) [PTP1B Inhibitor, 15]: 165 µM and 135 µM.
`CC(=O)Oc1ccc(C2=NOC(c3ccccc3)C2)c(OC(C)=O)c1` (stereo not given) [PTP1B Inhibitor, 19] returned an IC50 of 62.7 µM and a Ki of 25 µM.

These data come from BindingDB's records for doi:10.1007/s00044-007-9043-6 (Central Drug Research Institute, 2008).
